Experiments:
Assay in all cases: Enzyme Assay
PIK3CG (human) = PIK3CG (human) (UniProt P48736)
PIK3CA (human) = PIK3CA (human) (UniProt P42336)
PIK3CB (Human) = PIK3CB (Human) (UniProt P42338)
PIK3CD (Human) = PIK3CD (Human) (UniProt O00329)
Sequence of PIK3CD (Human) (O00329 whole entry, looked up): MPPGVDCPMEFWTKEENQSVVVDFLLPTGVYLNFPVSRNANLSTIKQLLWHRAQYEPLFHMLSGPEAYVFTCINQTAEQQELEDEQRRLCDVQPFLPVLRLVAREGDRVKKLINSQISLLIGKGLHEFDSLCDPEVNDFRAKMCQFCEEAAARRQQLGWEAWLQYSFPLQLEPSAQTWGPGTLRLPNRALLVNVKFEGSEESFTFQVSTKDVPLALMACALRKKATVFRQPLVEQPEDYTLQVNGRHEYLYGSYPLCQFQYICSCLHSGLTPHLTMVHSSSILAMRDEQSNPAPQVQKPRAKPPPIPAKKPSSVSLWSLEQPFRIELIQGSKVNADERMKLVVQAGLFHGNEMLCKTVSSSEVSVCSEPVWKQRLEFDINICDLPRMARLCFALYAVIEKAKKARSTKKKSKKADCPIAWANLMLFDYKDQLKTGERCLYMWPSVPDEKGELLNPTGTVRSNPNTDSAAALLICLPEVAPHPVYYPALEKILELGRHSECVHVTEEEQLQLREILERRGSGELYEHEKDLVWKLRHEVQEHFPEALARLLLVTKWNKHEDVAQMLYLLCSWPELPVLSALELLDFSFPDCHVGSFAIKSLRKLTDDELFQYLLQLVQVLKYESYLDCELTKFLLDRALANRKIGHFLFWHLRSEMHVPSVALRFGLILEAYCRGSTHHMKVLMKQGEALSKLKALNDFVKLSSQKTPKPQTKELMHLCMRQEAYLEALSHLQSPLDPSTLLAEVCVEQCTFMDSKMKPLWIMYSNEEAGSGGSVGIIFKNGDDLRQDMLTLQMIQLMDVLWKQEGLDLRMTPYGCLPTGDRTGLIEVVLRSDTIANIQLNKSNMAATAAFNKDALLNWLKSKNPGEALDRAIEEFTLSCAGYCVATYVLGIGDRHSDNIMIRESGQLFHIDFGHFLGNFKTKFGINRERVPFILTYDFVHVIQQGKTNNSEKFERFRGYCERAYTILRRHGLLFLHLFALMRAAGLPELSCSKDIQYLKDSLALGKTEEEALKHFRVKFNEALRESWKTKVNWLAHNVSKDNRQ

Sequence of PIK3CG (human) (P48736 whole entry, looked up): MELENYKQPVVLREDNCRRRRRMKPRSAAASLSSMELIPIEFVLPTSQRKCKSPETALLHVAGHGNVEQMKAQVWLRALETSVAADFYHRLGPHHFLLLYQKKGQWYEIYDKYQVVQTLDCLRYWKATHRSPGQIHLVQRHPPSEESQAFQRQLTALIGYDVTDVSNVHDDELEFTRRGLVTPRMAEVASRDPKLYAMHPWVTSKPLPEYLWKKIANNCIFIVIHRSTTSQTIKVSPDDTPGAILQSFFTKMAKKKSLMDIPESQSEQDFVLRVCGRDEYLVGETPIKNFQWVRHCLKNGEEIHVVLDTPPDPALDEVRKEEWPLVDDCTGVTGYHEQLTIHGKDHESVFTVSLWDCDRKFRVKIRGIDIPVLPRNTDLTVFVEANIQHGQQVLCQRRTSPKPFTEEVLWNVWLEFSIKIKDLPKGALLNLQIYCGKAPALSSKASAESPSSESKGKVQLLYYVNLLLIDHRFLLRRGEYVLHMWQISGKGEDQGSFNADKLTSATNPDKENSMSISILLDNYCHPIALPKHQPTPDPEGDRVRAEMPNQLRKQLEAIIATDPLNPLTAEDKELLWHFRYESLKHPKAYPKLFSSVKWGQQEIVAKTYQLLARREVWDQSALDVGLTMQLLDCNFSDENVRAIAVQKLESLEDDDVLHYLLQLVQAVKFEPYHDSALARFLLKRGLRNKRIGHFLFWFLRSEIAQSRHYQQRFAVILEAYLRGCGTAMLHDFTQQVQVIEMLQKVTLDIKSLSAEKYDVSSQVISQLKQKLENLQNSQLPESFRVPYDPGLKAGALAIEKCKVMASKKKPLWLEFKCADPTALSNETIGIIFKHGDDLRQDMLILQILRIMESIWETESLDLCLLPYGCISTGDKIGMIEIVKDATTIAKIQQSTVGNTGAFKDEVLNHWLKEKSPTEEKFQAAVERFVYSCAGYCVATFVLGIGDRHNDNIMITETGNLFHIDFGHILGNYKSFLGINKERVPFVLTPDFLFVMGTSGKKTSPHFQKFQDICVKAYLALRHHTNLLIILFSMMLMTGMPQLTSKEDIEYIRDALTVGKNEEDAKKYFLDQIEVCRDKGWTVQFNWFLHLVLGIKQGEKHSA
Sequence of PIK3CA (human) (P42336 whole entry, looked up): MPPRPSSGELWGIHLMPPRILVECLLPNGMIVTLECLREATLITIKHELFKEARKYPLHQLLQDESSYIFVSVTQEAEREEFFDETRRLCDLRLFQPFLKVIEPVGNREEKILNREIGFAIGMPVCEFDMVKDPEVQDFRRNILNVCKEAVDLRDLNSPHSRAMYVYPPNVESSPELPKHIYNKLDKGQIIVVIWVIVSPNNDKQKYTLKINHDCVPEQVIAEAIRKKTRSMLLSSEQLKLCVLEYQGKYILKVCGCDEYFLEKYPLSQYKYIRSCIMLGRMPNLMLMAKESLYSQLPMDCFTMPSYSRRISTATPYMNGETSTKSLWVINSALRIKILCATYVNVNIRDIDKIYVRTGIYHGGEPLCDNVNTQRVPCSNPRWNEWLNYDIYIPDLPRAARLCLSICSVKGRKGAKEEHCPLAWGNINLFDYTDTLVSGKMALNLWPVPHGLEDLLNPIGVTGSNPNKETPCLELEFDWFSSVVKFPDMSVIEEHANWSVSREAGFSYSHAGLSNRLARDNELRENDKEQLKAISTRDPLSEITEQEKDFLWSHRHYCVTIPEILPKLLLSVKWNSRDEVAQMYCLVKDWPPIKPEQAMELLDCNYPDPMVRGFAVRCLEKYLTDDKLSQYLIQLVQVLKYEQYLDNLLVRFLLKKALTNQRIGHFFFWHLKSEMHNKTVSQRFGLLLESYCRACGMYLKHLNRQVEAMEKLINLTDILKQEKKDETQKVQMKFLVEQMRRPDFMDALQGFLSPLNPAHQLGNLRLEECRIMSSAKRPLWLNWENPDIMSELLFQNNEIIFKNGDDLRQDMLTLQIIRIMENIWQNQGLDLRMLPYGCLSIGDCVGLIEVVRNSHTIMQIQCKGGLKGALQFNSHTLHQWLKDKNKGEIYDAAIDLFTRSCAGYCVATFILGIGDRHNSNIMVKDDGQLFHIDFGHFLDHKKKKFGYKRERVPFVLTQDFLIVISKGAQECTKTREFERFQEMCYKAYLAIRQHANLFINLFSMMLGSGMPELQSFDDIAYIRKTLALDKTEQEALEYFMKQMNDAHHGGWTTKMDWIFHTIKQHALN
Sequence of PIK3CB (Human) (P42338 whole entry, looked up): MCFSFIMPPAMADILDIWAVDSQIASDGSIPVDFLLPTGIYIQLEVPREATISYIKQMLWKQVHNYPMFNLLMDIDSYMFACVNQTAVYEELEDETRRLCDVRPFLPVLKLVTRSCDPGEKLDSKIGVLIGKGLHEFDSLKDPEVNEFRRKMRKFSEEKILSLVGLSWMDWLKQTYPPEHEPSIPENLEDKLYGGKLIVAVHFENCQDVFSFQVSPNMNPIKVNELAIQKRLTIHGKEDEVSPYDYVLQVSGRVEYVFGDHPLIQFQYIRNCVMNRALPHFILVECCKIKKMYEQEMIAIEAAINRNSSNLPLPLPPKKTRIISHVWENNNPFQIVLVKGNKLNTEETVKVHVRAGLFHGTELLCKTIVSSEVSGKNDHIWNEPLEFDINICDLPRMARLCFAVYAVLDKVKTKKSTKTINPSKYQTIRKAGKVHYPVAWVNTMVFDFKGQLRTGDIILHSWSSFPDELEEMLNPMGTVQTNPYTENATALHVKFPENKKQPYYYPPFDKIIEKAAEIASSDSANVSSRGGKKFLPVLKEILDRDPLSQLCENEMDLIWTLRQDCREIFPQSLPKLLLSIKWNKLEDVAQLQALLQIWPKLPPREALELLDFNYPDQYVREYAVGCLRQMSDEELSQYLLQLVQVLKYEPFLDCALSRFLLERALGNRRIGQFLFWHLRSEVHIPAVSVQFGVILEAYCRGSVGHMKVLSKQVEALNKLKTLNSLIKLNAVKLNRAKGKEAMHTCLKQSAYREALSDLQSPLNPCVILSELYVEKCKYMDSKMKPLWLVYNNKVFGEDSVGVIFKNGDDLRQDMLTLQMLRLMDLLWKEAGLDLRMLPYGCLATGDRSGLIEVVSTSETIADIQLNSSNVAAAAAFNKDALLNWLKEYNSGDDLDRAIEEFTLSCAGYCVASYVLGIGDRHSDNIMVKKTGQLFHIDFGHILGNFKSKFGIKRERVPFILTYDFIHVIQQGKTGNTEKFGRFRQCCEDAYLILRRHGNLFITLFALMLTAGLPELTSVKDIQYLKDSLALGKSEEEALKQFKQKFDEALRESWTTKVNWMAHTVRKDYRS

SMILES	IC50 (PIK3CG (human))	IC50 (PIK3CA (human))	IC50 (PIK3CB (Human))	IC50 (PIK3CD (Human))	Ki (PIK3CD (Human))
Cn1nccc1C(=O)Nc1cc(-c2cccc3[nH]ccc23)cc2[nH]ncc12	20 µM	> 25.1 µM	20 µM	0.794 µM	
Cc1ccc(-c2cc(-c3cccc4[nH]ccc34)cc3[nH]ncc23)o1	2 µM	5.01 µM	2.51 µM	0.126 µM	
Cc1cnc(-c2cc(-c3cccc4[nH]ccc34)cc3[nH]ncc23)s1	3.98 µM	10 µM	6.31 µM	0.251 µM	
O=C(Nc1cc(-c2cccc3[nH]ccc23)cc2[nH]ncc12)c1cccc(CN2CCCCC2)n1	> 25.1 µM	> 25.1 µM	12.6 µM	0.0126 µM	
O=C(Nc1cc(-c2cccc3[nH]ccc23)cc2[nH]ncc12)c1csc(CN2CCOCC2)n1	3.16 µM	10 µM	7.94 µM	0.00631 µM	
Cc1nc(C(=O)Nc2cc(-c3cc(F)cc4[nH]ccc34)cc3[nH]ncc23)cs1	3.16 µM	12.6 µM	3.16 µM	0.0158 µM	
Cc1nc(C(=O)Nc2cc(-c3cc(Cl)cc4[nH]ccc34)cc3[nH]ncc23)cs1	3.98 µM	5.01 µM	1 µM	0.00794 µM	
Cc1nc(C(=O)Nc2cc(-c3cnc(Cl)c(NS(C)(=O)=O)c3)cc3[nH]ncc23)cs1	0.0501 µM	0.316 µM	1 µM	0.002 µM	
C[C@@H]1CN(Cc2cnc(-c3cc(-c4cccc5[nH]ccc45)cc4[nH]ncc34)o2)C[C@H](C)O1	2 µM	15.8 µM	1 µM	0.00251 µM	
O=C(Nc1cc(-c2cccc3[nH]ccc23)cc2[nH]ncc12)c1ccccc1	12.6 µM	> 25.1 µM	20 µM	1.26 µM	
CC(C)N1CCN(Cc2coc(-c3cc(-c4cccc5[nH]ccc45)cc4[nH]ncc34)n2)CC1	15.8 µM	12.6 µM	3.98 µM	0.00398 µM	
Cc1ccc(C(=O)Nc2cc(-c3cccc4[nH]ccc34)cc3[nH]ncc23)nc1	1.26 µM	> 25.1 µM	15.8 µM	0.126 µM	
Cc1coc(-c2cc(-c3cccc4[nH]ccc34)cc3[nH]ncc23)n1	0.631 µM	12.6 µM	0.794 µM	0.126 µM	
O=C(Nc1cc(-c2cccc3[nH]ccc23)cc2[nH]ncc12)c1csc(-c2ccccc2)n1	7.94 µM	> 25.1 µM	12.6 µM	0.501 µM	
O=C(Nc1cc(-c2cccc3[nH]ccc23)cc2[nH]ncc12)c1cscn1	10 µM	> 25.1 µM	12.6 µM	0.158 µM	
Cc1nc(C(=O)Nc2cc(-c3cccc4[nH]ncc34)cc3[nH]ncc23)cs1	6.31 µM	> 25.1 µM	> 25.1 µM	0.316 µM	
Cc1csc(-c2cc(-c3cccc4[nH]ccc34)cc3[nH]ncc23)n1	2.51 µM	> 25.1 µM	6.31 µM	0.398 µM	
Cc1nc(C(=O)Nc2cc(-c3cnc(Cl)c(N(C)S(=O)(=O)c4ccccc4)c3)cc3[nH]ncc23)cs1	> 25.1 µM	> 25.1 µM	> 25.1 µM	0.501 µM	
C[C@@H]1CN(Cc2nnc(-c3cc(-c4cccc5[nH]ccc45)cc4[nH]ncc34)o2)C[C@H](C)O1	2 µM	> 25.1 µM	1 µM	0.00316 µM	
Cc1nc(C(=O)Nc2cc(-c3ccc(Cl)c(NS(C)(=O)=O)c3)cc3[nH]ncc23)cs1	3.98 µM	15.8 µM	15.8 µM	0.631 µM	
Cc1nc(C(=O)Nc2cc(-c3cccc(O)c3)cc3[nH]ncc23)cs1	12.6 µM	15.8 µM	7.94 µM	0.316 µM	
COc1ncc(-c2cc(NC(=O)c3csc(CN4C[C@@H](C)O[C@@H](C)C4)n3)c3cn[nH]c3c2)cc1NS(C)(=O)=O	0.316 µM	0.398 µM	2.51 µM	> 25.1 µM	0.0001 µM
C[C@@H]1CN(Cc2coc(-c3cc(-c4cccc5[nH]ccc45)cc4[nH]ncc34)n2)C[C@H](C)O1	2.51 µM	12.6 µM	1.26 µM	0.00501 µM	
C[C@@H]1CN(Cc2nc(C(=O)Nc3cc(-c4cccc5[nH]ccc45)cc4[nH]ncc34)cs2)C[C@H](C)O1	2.51 µM	12.6 µM	5.01 µM	0.002 µM	
Cc1nc(C(=O)Nc2cc(-c3cccc4[nH]cnc34)cc3[nH]ncc23)cs1	> 25.1 µM	> 25.1 µM	> 25.1 µM	0.316 µM	
Cc1nc(C(=O)Nc2cc(-c3cnc(C)c(NS(C)(=O)=O)c3)cc3[nH]ncc23)cs1	0.631 µM	3.16 µM	3.98 µM	0.0316 µM	

SMILES	IC50 (PIK3CG (human))	IC50 (PIK3CA (human))	IC50 (PIK3CB (Human))	IC50 (PIK3CD (Human))	Ki (PIK3CD (Human))
c1cc(-c2cc(-c3ncco3)c3cn[nH]c3c2)c2cc[nH]c2c1	1.26 µM	10 µM	1.26 µM	0.0794 µM	
Cc1nc(C(=O)Nc2cc(-c3cccc4c3ccn4C)cc3[nH]ncc23)cs1	> 25.1 µM	> 25.1 µM	> 25.1 µM	5.01 µM	
Cc1ccc(-c2cc(-c3cccc4[nH]ccc34)cc3[nH]ncc23)s1	3.98 µM	7.94 µM	6.31 µM	0.794 µM	
Cc1cnc(-c2cc(-c3cccc4[nH]ccc34)cc3[nH]ncc23)o1	0.398 µM	10 µM	1.26 µM	0.0631 µM	
CC(C)N1CCN(Cc2cnc(-c3cc(-c4cccc5[nH]ccc45)cc4[nH]ncc34)o2)CC1	6.31 µM	5.01 µM	1.58 µM	> 25.1 µM	0.000126 µM
CC(C)n1nccc1C(=O)Nc1cc(-c2cccc3[nH]ccc23)cc2[nH]ncc12	20 µM	> 25.1 µM	> 25.1 µM	1 µM	
Cc1nc(C(=O)Nc2cc(-c3cnc(Cl)c(CS(=O)(=O)c4ccccc4)c3)cc3[nH]ncc23)cs1	> 25.1 µM	25.1 µM	20 µM	1 µM	
O=C(Nc1cc(-c2cccc3[nH]ccc23)cc2[nH]ncc12)c1csc(Cc2ccccc2)n1	12.6 µM	> 25.1 µM	> 25.1 µM	0.0794 µM	
Cc1nnc(-c2cc(-c3cccc4[nH]ccc34)cc3[nH]ncc23)o1	1.26 µM	> 25.1 µM	3.16 µM	0.1 µM	
Cc1nc(C(=O)Nc2cc(-c3cnc(Cl)c(NS(=O)(=O)c4ccccc4)c3)cc3[nH]ncc23)cs1	0.0251 µM	0.2 µM	0.501 µM	0.00126 µM	
CC(C)N1CCN(Cc2nc(C(=O)Nc3cc(-c4cccc5[nH]ccc45)cc4[nH]ncc34)cs2)CC1	3.98 µM	1.26 µM	1.58 µM	0.00316 µM	
CC(C)N1CCN(Cc2nnc(-c3cc(-c4cccc5[nH]ccc45)cc4[nH]ncc34)o2)CC1	10 µM	12.6 µM	3.16 µM	0.00126 µM	
COc1ncc(-c2cc(NC(=O)c3csc(C)n3)c3cn[nH]c3c2)cc1NS(C)(=O)=O	0.2 µM	0.794 µM	0.794 µM	0.0126 µM	
COc1ncc(-c2cc(-c3ncc(CN4C[C@@H](C)O[C@@H](C)C4)o3)c3cn[nH]c3c2)cc1NS(C)(=O)=O	0.501 µM	0.501 µM	0.631 µM		
Cc1cccc(C(=O)Nc2cc(-c3cccc4[nH]ccc34)cc3[nH]ncc23)n1	0.794 µM	20 µM	3.16 µM	0.0158 µM	
COc1cc(-c2cc(NC(=O)c3csc(C)n3)c3cn[nH]c3c2)c2cc[nH]c2c1	7.94 µM	6.31 µM	2.51 µM	0.0126 µM	
O=C(Nc1cc(-c2cccc3[nH]ccc23)cc2[nH]ncc12)c1csc(CN2CCN3CCC[C@H]3C2)n1	10 µM	7.94 µM	7.94 µM	0.00398 µM	
CN(C(=O)c1ccccn1)c1cc(-c2cccc3[nH]ccc23)cc2[nH]ncc12	> 25.1 µM	> 25.1 µM	> 25.1 µM	15.8 µM	
O=C(Nc1cc(-c2cccc3[nH]ccc23)cc2[nH]ncc12)c1ccccn1	6.31 µM	10 µM	6.31 µM	0.1 µM	0.0501 µM
Cn1ccc(C(=O)Nc2cc(-c3cccc4[nH]ccc34)cc3[nH]ncc23)n1	10 µM	> 25.1 µM	12.6 µM	0.1 µM	
Cc1nc(C(=O)Nc2cc(-c3ccnc4[nH]ccc34)cc3[nH]ncc23)cs1	0.251 µM	7.94 µM	5.01 µM	0.00794 µM	
Cc1nc(C(=O)Nc2cc(-c3cncc(NS(C)(=O)=O)c3)cc3[nH]ncc23)cs1	0.316 µM	7.94 µM	> 25.1 µM	0.0794 µM	
O=C(Nc1cc(-c2cccc3[nH]ccc23)cc2[nH]ncc12)c1csc(CN2CCCCC2)n1	15.8 µM	20 µM	15.8 µM	0.01 µM	
Cc1cc2c(-c3cc(NC(=O)c4csc(C)n4)c4cn[nH]c4c3)cccc2[nH]1	3.16 µM	7.94 µM	3.16 µM	0.02 µM	
Cc1nc(C(=O)Nc2cc(-c3cccc4[nH]ccc34)cc3[nH]ncc23)cs1	3.98 µM	> 25.1 µM	10 µM	0.0501 µM	
